Our source for the absorption maximum values is the Deep4Chem optical property database.

The nature of the series: solvent given as SMILES.

`c1ccc(-n2c(-c3c(-n4c5ccccc5c5ccccc54)cccc3-n3c4ccccc4c4ccccc43)nc3ccccc32)cc1` displayed an absorption maximum (in C1CCOC1) of 342 nm.
Turning to `Oc1ccccc1-c1nc2c3ccccc3c3ccccc3c2n1-c1ccccc1`, where the note is “in Cc1ccccc1”, the absorption maximum is listed as 335 nm.
With `CC(C)[Si](C#Cc1c2cc3ccccc3cc2c(C#Cc2ccc(F)cc2)c2cc3ccccc3cc12)(C(C)C)C(C)C`, the absorption maximum (in ClCCl) amounted to 651 nm.
As to `CN(C)c1ccc(C2=Nc3scc(-c4ccccc4)[n+]3[B-](F)(F)O2)cc1`, the absorption maximum (in C1CCOC1) was 406 nm, the absorption maximum (in CC#N) turned out to be 406 nm, the absorption maximum (in Cc1ccccc1) is reported as 409 nm and the absorption maximum (in ClCCl) turned out to be 411 nm.
For the compound `COCCOCCOCCOc1ccc(/C=C/C2=[N+]3C(=C(c4cc(OC)cc(OC)c4)c4c(C)c(I)c(/C=C/c5ccc(OCCOCCOCCOC)cc5)n4[B-]3(F)F)C(C)=C2I)cc1`, the absorption maximum reads like this: (in C1CCOC1) 664 nm; (in CS(C)=O) 666 nm; (in ClCCl) 664 nm.
With `CC1(C)CCc2c(c3ccccc3c3nc4c(nc23)c2c(c3ccccc34)OC(C)(C)CC2)O1`, the absorption maximum is reported as 431.03 nm (in C1CCCCC1); 434.97 nm (in C1COCCO1); 434.97 nm (in CC#N); 431.97 nm (in CC(C)O); 429.92 nm (in CCCCCC); 437.06 nm (in ClC(Cl)Cl). Further, the absorption maximum (in c1ccccc1) was found to be 434.97 nm.
Regarding `N#Cc1ccc(/C=C2\N=C(c3ccccc3)OC2=O)cc1`, the absorption maximum (in C1COCCO1) was 369 nm.
Take `CC(=O)c1cc2c(cc1F)NC(C)(C)CC2=O`: where the note is “in CC#N”, the absorption maximum was determined as 352 nm.
Take `CC(C)(C)c1cc2ccc3cc(C(C)(C)C)cc4c3c2c(c1)c(=O)n1c4nc2c3ccccc3c3ccccc3c21`: the absorption maximum by setting is: (in C1CCOC1) 354 nm; (in CC#N) 365 nm; (in CC(C)=O) 365 nm; (in CCCCCC) 367 nm; (in CCO) 366 nm; (in CCOC(C)=O) 366 nm. Further, the absorption maximum runs as follows: (in CO) 362 nm; (in CS(C)=O) 368 nm; (in Cc1ccc(C)cc1) 368 nm; (in ClC(Cl)(Cl)Cl) 369 nm; (in ClC(Cl)Cl) 368 nm; (in c1ccccc1) 369 nm.
For the compound `O=[N+]([O-])c1ccc(F)cc1C1CC(c2cccc3ccccc23)=NN1c1ccccc1` (stereo unspecified), the absorption maximum reads like this: (in C1CCCCC1) 365 nm; (in C1CCOC1) 374 nm; (in C1COCCO1) 372 nm; (in CC#N) 367 nm; (in CC(C)O) 370 nm; (in CCOC(C)=O) 371 nm. Besides, the absorption maximum is, setting by setting: (in CCOCC) 363 nm; (in CO) 372 nm; (in Cc1ccccc1) 368 nm; (in ClC(Cl)Cl) 363 nm; (in O) 375 nm.
Take `COc1ccc(-c2cnc(-c3ccccc3)o2)cc1OC`: under “in ClCCl”, the absorption maximum was 322 nm.
In the case of `F[B-]1(F)C2=C(C=c3c4cccc5cccc(c54)n31)c1cccc3ccc[n+]2c13`, the absorption maximum (in CS(C)=O) worked out at 622 nm.
The compound `Clc1ccc(N2c3sc4ccccc4c3Sc3sc4ccccc4c32)cc1` came in with an absorption maximum (in ClCCl) of 310 nm.
As to `Cc1cccc(C2=CC3=C(c4c(C)cc(C)cc4C)c4cc(-c5cccc(C)c5)c(-c5cccc(C)c5)n4[B-](F)(F)[N+]3=C2c2cccc(C)c2)c1`, the absorption maximum reads like this: (in C1CCCCC1) 579 nm; (in C1CCOC1) 577 nm; (in CC#N) 559 nm; (in Cc1ccccc1) 571 nm; (in ClCCl) 573 nm.
`COc1ccc(/C=C/c2nc3ccccc3s2)cc1`: the absorption maximum by setting is: (in C1CCCCC1) 350 nm; (in CO) 350 nm.
Turning to `CCN(CC)c1ccc(/C=N/CC/N=C/c2ccc(N(CC)CC)cc2O)c(O)c1`, the absorption maximum turned out to be 339 nm (in CC#N), 353 nm (in CN(C)C=O) and 344 nm (in ClCCl).
Where the note is “in C1CCCCC1”, `COC(=O)c1c(C(=O)OC)c2ccc(-c3ccccc3)nn2c1C` returned an absorption maximum of 397.6 nm.
For the compound `CCCCCCCCOc1cc(/C=C/c2cc(OCCCCCCCC)c(/C=C/c3cc(OCCCCCCCC)c(Br)cc3OCCCCCCCC)cc2OCCCCCCCC)c(OCCCCCCCC)cc1Br`, for the setting “in ClCCl”, the absorption maximum came out at 410 nm.
Where the note is “in Cc1ccccc1”, `N#Cc1cc(C#N)c(-n2c3ccccc3c3ccccc32)cc1-n1c2ccccc2c2ccccc21` registered an absorption maximum of 374 nm.
On to `c1ccc(-c2nc(-c3ccc(N4c5ccccc5Sc5ccccc54)cc3)nn2-c2ccc(N3c4ccccc4Sc4ccccc43)cc2)nc1`, for which the absorption maximum (in ClCCl) came out at 377 nm.
Turning to `CCN(C(C)=O)c1cc2c(cc1C)C(c1ccccc1C(=O)O)=C1CCCC(/C=C/C3=[N+](C)c4ccc5ccccc5c4C3(C)C)=C1O2`, the absorption maximum (in CCO) was 678 nm.
As for `CCCCCC#Cc1cc(C#CCCCCC)c2ccc3c(C(=O)c4ccccc4)cc(C#CCCCCC)c4ccc1c2c43`, the absorption maximum (in ClCCl) is 416 nm.
`Cc1ccc(-n2c(-c3ccccc3[NH-])[nH+]c3c4ccccc4c4ccccc4c32)cc1` registered an absorption maximum (in Cc1ccccc1) of 363 nm.
Regarding `CCOC(=O)c1ccc(C2CC(c3cccc4ccccc34)=NN2c2ccc(F)cc2)cc1` (stereo unspecified), the absorption maximum (in ClCCl) was 375 nm.
As to `CCN1C(=CC2=C([O-])C(=Cc3sc4ccccc4[n+]3CC)C2=O)Sc2ccccc21`, the absorption maximum is listed as 649 nm (in CO), 669 nm (in ClC(Cl)Cl) and 670 nm (in ClCCl).
For the setting “in CC#N”, `COc1ccc(-c2nc(/C(C#N)=C/c3ccc(Cl)cc3)sc2-c2ccc(OC)cc2)cc1` registered an absorption maximum of 394 nm.
In turn, `CCC12C(=C3C(=C4c5ccc(-c6ccc(C(C)=O)cc6)cc5S(=O)(=O)C41CC)C(F)(F)C(F)(F)C3(F)F)c1ccc(-c3ccc(C(C)=O)cc3)cc1S2(=O)=O` (stereo unspecified) displayed an absorption maximum (in C1COCCO1) of 456 nm.
As for `Cc1ccc2nc3[nH]c(=O)[nH]c(=O)c3nc2c1C`, the absorption maximum (in CC#N) worked out at 388 nm.
`CC1=C(I)C(C)=[N+]2C1=C(c1c(-c3ccccn3)nc3ccccn13)c1c(C)c(I)c(C)n1[B-]2(F)F`: for the setting “in ClCCl”, the absorption maximum is 554 nm.
Regarding `Cc1ccsc1-c1cc2c3cc(-c4sccc4C)c4nc(C(F)(F)C(F)(F)C(F)(F)F)nc5c(-c6sccc6C)cc(c6cc(-c7sccc7C)c7nc(C(F)(F)C(F)(F)C(F)(F)F)nc1c7c26)c3c45`, the absorption maximum (in C1CCOC1) is 532 nm.
For the compound `c1ccc2c(c1)-c1ccccc1C21c2ccccc2-c2cnccc21`, the absorption maximum (in CC1CCCO1) is listed as 305 nm.
For the setting “in Cc1ccccc1”, `CCCC1=Cc2nc1ccc1[nH]c(cc1CCC)c1nc(c3ccccc3c3[nH]c2cc3CCC)C(CCC)=C1` returned an absorption maximum of 762 nm.
As for `COc1ccc(N(c2ccc(OC)cc2)c2ccc(-c3ccc(-c4ccc5nc6ccccc6c(=O)n5c4)cc3)cc2)cc1`, the absorption maximum (in ClCCl) is 367 nm.
Same read-out and setting: to `COc1cc(OC)cc(C2=[O+][B-](F)(F)OC(c3cccs3)=C2)c1` belongs 391 nm.
`c1ccc2c(c1)-c1ccccc1C21c2ccccc2N(c2ccc(-c3nc([C@]45CC6CC(C[C@@H](C6)C4)C5)nc([C@]45C[C@H]6C[C@@H](C[C@H](C6)C4)C5)n3)cc2)c2ccccc21` displayed an absorption maximum (in Cc1ccccc1) of 380.1 nm.
In the case of `CC(N)=O`, the absorption maximum (in O) was 220 nm.
For the setting “in CCO”, `Oc1cccc(O)c1-c1c2ccc(=[N+]3CCCCC3)cc-2oc2cc(N3CCCCC3)ccc12` returned an absorption maximum of 557 nm.
On to `COC(=O)c1nc2c(N(C)C)nc(N(C)C)nc2n1Cc1ccccc1`, for which the absorption maximum runs as follows: (in C1COCCO1) 344 nm; (in CC#N) 347 nm; (in CO) 347 nm; (in ClCCl) 351 nm.
Regarding `Cc1cc(-c2ccc(-c3nc4ccccc4[nH]3)cc2)c(C)cc1-c1ccc(-c2nc3ccccc3[nH]2)cc1`, for the setting “in CN(C)C=O”, the absorption maximum was 323 nm.
In turn, `Cc1ccc(/C=C/c2ccccc2-[n+]2noc([O-])c2-c2ccccc2)cc1` came in with an absorption maximum (in C1CCCCC1) of 316 nm, an absorption maximum (in CC#N) of 313 nm and an absorption maximum (in CCO) of 315 nm.
In the case of `Fc1ccc(C#Cc2nc(C#Cc3ccc(F)cc3)c(C#Cc3ccc(F)cc3)c(C#Cc3ccc(F)cc3)c2C#Cc2ccc(F)cc2)cc1`, the absorption maximum (in ClCCl) was 407 nm.
`CC(=O)OC[C@H]1O[C@@H](OCC#Cc2ccc(C3=C4C(C)=CC(/C=C/c5ccc(N(C)C)cc5)=[N+]4[B-](F)(F)n4c(/C=C/c5ccc(N(C)C)cc5)cc(C)c43)cc2)[C@H](OC(C)=O)C(OC(C)=O)[C@@H]1OC(C)=O` (stereo partly specified) registered an absorption maximum (in CC#N) of 701 nm.
`Cc1c2ccncc2c(C)c2c1[nH]c1ccccc12`: the absorption maximum by setting is: (in C1CCCCC1) 290 nm; (in C1CCOC1) 293.3 nm; (in C1COCCO1) 292.5 nm; (in CC#N) 291.5 nm; (in CC(C)(C)O) 294.5 nm; (in CC(C)O) 294.5 nm. The absorption maximum is, setting by setting: (in CCC(C)(C)O) 294.5 nm; (in CCCCCC) 289.5 nm; (in CCCCO) 295 nm; (in CCO) 294 nm; (in CCOC(C)=O) 291.5 nm; (in CCOCC) 291.5 nm. The absorption maximum is, setting by setting: (in CN(C)C=O) 293.5 nm; (in CO) 294 nm; (in CS(C)=O) 295 nm; (in Cc1ccccc1) 293 nm.
For the setting “in ClCCl”, `O=[N+]([O-])c1ccc2c(ccc3[n+]2[B-](F)(F)n2c-3cc3c4ccccc4c4ccccc4c32)c1` gave an absorption maximum of 530 nm.
`CCCCc1c2c(nc3ccccc13)-c1cc3c(cc1CC2)-c1nc2ccccc2c(CCCC)c1CC3` registered an absorption maximum (in ClC(Cl)Cl) of 372 nm.
